Source: publication PMC5560858, “A lectin receptor kinase as a potential sensor for extracellular nicotinamide adenine dinucleotide in Arabidopsis thaliana” (eLife, 2017)

Molecular target: T1, LecRK-I.8 (lectin receptor kinase-I.8, At5g60280) (Arabidopsis thaliana, UniProt Q9LSR9)
T1 construct: gene LECRK18; extracellular lectin domain (amino acids 23 to 283) fused to GFP (eLecRK-I.8-GFP)
Assay: […]-NAD+ radioligand saturation binding to immunoprecipitated eLecRK-I.8-GFP; also competition, and binding to recombinant MBP-eLecRK-I.[…]

T1 sequence (Q9LSR9 23-283): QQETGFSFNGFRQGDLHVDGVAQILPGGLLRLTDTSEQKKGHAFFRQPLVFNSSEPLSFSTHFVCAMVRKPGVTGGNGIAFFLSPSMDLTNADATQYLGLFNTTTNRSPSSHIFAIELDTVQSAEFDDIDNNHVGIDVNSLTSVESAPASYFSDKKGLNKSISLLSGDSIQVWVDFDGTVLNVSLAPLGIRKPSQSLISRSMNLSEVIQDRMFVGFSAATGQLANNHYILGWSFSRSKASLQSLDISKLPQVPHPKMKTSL

`NC(=O)c1ccc[n+]([C@@H]2O[C@H](COP(=O)([O-])OP(=O)(O)OC[C@H]3O[C@@H](n4cnc5c(N)ncnc54)[C@H](O)[C@@H]3O)[C@@H](O)[C@H]2O)c1` [NAD+] gave a Kd of 437 ± 105 nM.
